“Also recorded” adds a separate entry of the source.
Experiments:
[1] = In vivo toxicity of JE given I.P.: serum ALT and organ histology; details: JE 50 μM twice daily I.P. for 3 or 5 days
Procedure: (§1) To test if JE has any toxicity, we first incubated murine macrophages with JE at different concentrations at 37° C. for two days, and determined viability of the cells. […] Further we injected the JE at 50 μM twice daily via I.P. for 3 or 5 days and then determined ALT levels in sera and examined the morphology in key organs, liver, kidney, spleen, intestines etc.

[2] = tested on: human corneal epithelial cells (HCECs); test: JE on TLR5 agonist (flagellin)-induced IL-6 in HCECs; assay type: cell-based; details: JE 50 μM overnight, flagellin 6 or 24 hours, ELISA
Procedure: FIG. 11. Probiotic bacteria metabolite JE inhibits TLR5 agonist-induced IL-6 in HCECs. HCECs were pretreated with 50 µM JE overnight and then stimulated with 0.1 μg/ml flagellin for the indicated time. The effect of TLR5 agonist (flagellin) on IL-6 secretion were measured in cell culture supernatants by ELISA. *, P<0.05.
To test if JE could be used as a therapeutic agent, we tested its effects on a dry eye disease model. Dry eye disease is characterized by inflammation in ocular surface. First, we tested if JE can inhibit production of pro-inflammatory cytokine IL-6 by corneal epithelial cells stimulated by TLR5 agonist flagellin. Thus, SV 40 immortalized human corneal epithelial cells (HCECs) were with JE at 50 μM overnight and they are subsequently exposed to TLR5 agonists (flagellin isolated from Pseudomonas aeruginosa) for 6 or 24 hours. The cell culture supernatants were collected and used for ELISA to determine the concentrations of IL-6. […] Probiotic bacteria-derived metabolite (JE) suppressed the TLR5 agonist-induced IL-6 production (FIG. 11).

[3] = tested on: IC-21 murine peritoneal macrophages; test: Toxicity assay, Cell Counting Kit-8 viability; assay type: cell-based, mouse; details: 37° C. two days, CCK-8
Procedure: FIG. 10. […] IC-21 murine peritoneal macrophages were seeded at a density of 2.0×10^4 per well in a 96-well plate. Differing concentrations of compound JE ranging from […] were diluted in DMSO and added to the appropriate wells. Cells were incubated at 37° C. for 48 hours. After the incubation period, Cell Counting Kit-8 (Sigma-Aldrich) was used for quantification of viable cells. CCK-8 solution was added to each well and the plate was incubated at 37° C. for two hours. Levels of water-soluble tetrazolium salt reduced to formazan were then measured at a wavelength of 450 nm. Cell viability was found as a percentage by dividing each absorbance value by the negative control.
as §1

[4] = tested on: human corneal epithelial cells (HCECs); test: MQ on IL-6 production in HCECs in response to TLR agonists; assay type: cell-based; details: for production and secretion of IL6: MQ 50 μM overnight
Procedure: FIG. 26. MQ Reduces IL-6 Response to Toll 3 and Toll 5 Agonist. HCECs were cultured at a uniform density and allowed to adhere. Cells were then incubated overnight in MQ at a concentration of […] at 37° C. The following day, the HCECs were stimulated with FLA at a concentration of 100 ng/ml or P (I:C) at 500 μg/mL for four hours. Supernatants were collected and IL-6 concentrations were determined via ELISA.
To investigate the effects of MQ on cytokine activity, human corneal epithelial cells (HCECs) were stimulated with various TLR agonists and the production of cytokines was measured via ELISA. HCECs were seeded at a density of 2×10^5 cells/well and were treated overnight with MQ at a concentration of 50 μM and the following day they were stimulated with Flagellin (FLA) at 100 ng/ml or Poly (I:C) at a concentration of 500 μg/ml. After 4 hours, supernatant was collected and the concentration of IL-6 was determined via ELISA.
The effects of MQ on various other TLR pathways including: TLR 1/2 (PAM3CSK4), TLR 2/6 (FSL) TLR 4 (Lipopolysaccharide), TLR 7 (Imiquimod), and TLR 9 (ODN2006) was also investigated.

[5] = tested on: Human corneal epithelial cells; test: NC on IL-6 release in HCECs; assay type: cell-based; details: 50 μM NC 18 hours, 6-8 hours
Procedure: FIG. 30. NC on IL-6 Release in HCECs. Human corneal epithelial cells were plated at a uniform density of 0.2×10^6 cells/mL in 24 well plates. These cells were allowed to adhere for 6-8 hours. They were then treated 18 hours with 50tM of metabolite NC before being stimulated with 1 tg/mL of PA-Flagellin or 50 tg/mL Poly I:C. Supernatant was collected between 6-8 hours after addition of TLR agonist and centrifuged at 1250 rpms for 5 minutes to remove any debris. IL-6 in the supernatant was then quantified using a sandwich ELISA for human IL-6 with a standard of known IL-6 concentration.
Human corneal epithelial cells (HCECs) are a cell type used for models of ocular inflammation. To determine the specificity of HCEC TLR signaling, HCECs were stimulated with various TLR agonists. In this experimental model, HCECs only release IL-6 in response to TLR3 and TLR5 agonists (Poly I:C and Fla, respectively) in vitro (FIG. 29). Therefore, only Poly I:C and Fla were used for HCEC stimulation in subsequent experiments.
To determine if NC can mitigate TLR-related inflammation, HCECs were plated at a uniform density, incubated with 50 μM metabolite NC for 18 hours, and stimulated with flagellin or Poly I:C. After 6-8 hours, supernatant was collected and IL-6 was quantified. […] FIG. 30.

[6] = tested on: macrophages; test: NC on other TLR pathways, macrophages (Example 7); assay type: cell-based; details: PAM3CSK4, Flagellin, Imiquimod, ODN2006; various concentrations
Procedure: Once ready, macrophages were then incubated with NC at a concentration of 50 uM overnight. The following day they were treated with P(I:C) at 50 ug/mL, 100 ug/mL, or 200 ug/mL, with LPS at 1 ng/ml or 10 ng/ml, or FSL at a concentration of 20 ng/ml or 50 ng/mL. Samples were treated for 4 hours and then Supernatant was then collected and the concentration of TNFα was then determined via the commercially available ELISA MAX Deluxe kit (Biolegend), with measurements reported in pg/mL.
Further investigation of NC's impact on TLR signaling involved treating BMDMs with the TLR 4 agonist LPS. Following overnight treatment with NC cells were treated with LPS at a concentration of 1 ng/ml and 10 ng/ml. After 4 hours supernatant was collected and concentration of TNFα was measured via ELISA. […] Additionally, we explored NCs effects on other TLR agonists. […] We investigated NCs effects on various other TLR pathways including: ½ (PAM3CSK4), TLR 5 (Flagellin), TLR 7 (Imiquimod), and TLR 9 (ODN2006).

CC(=O)O[C@@H]1CC[C@H]2[C@H]3CC[C@H]4CC(F)(F)CC[C@]4(C)[C@H]3CC[C@]12C [JE, 3,3-Difluoro-5-alpha-androstan-17-beta-yl acetate]
tissue damage in organs by histology (liver, kidney, spleen, intestines) [1]: did not see any tissue damage | ALT levels in sera ([1]; vs control group): no significant higher levels | TLR5 agonist-induced IL-6 production [2]: suppressed | viability of the cells ([3]; JE 50 μM or below): high viability; also recorded: did not show significant reduction | viability of the cells ([3]; JE >100 μM): reduced the viability

Prednicarbate [MQ]
production and secretion of IL6 ([4]; Flagellin (FLA) 100 ng/ml 4 hours): reduced | production and secretion of IL6 ([4]; Poly (I:C) 500 μg/ml 4 hours): reduced | production of IL-6 ([4]; MQ alone, 50 μM overnight, no TLR agonist): not found to increase | cytokine production, other TLR pathways ([4]; PAM3CSK4, FSL, Lipopolysaccharide, Imiquimod, ODN2006, various concentrations): did not exhibit any significant inhibitory effects

CCCCCCCCCCCCCCCC(=O)N[C@@H](C(=O)O)[C@H](C)O [NC, N-Palmitoyl-D-Threonine]
release of IL-6 in response to Poly I:C ([5]; Poly I:C): does not significantly reduce; also recorded: modestly reduced | release of IL-6 in response to Fla ([5]; flagellin): does not significantly reduce | cytokine production, other TLR pathways [6]: did not exhibit any significant inhibitory effects

— patent US20250000874A1, “BACTERIAL METABOLITES AND THEIR USE IN REDUCING INFLAMMATION” (LOYOLA UNIVERSITY OF CHICAGO, priority 2023, published 2025)
